According to the supplement of paper PMC10307832:

How the values were obtained:
Assay in all cases: relative viability (nuclei count vs DMSO), 5 days (fraction); higher = more cells survive
Vorinostat + Pictilisib = compound: O=C(CCCCCCC(=O)Nc1ccccc1)NO [Vorinostat] + CS(=O)(=O)N1CCN(Cc2cc3nc(-c4cccc5[nH]ncc45)nc(N4CCOCC4)c3s2)CC1 [Pictilisib] (partner 1 µM)
How it was run: (§1)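 Relative viability was taken as the ratio of nuclei in treated wells to nuclei in vehicle wells. Lung cancer cell lines in 1536-well plates received compounds by pin tool one day after seeding, either one drug alone or a fixed anchor-drug dose plus five library-drug doses (not always all listed) in √10 steps. Nuclei were counted on 4× images after 5 days of treatment, and values are medians of duplicate plates.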

Vorinostat + AZD7762 = compound: O=C(CCCCCCC(=O)Nc1ccccc1)NO [Vorinostat] + NC(=O)Nc1cc(-c2cccc(F)c2)sc1C(=O)N[C@H]1CCCNC1 [AZD7762] (partner 0.2 µM)
How it was run: as §1

Vorinostat + Decitabine = compound: O=C(CCCCCCC(=O)Nc1ccccc1)NO [Vorinostat] + Nc1ncn([C@H]2C[C@H](O)[C@@H](CO)O2)c(=O)n1 [Decitabine] (partner 2 µM)
How it was run: as §1

Vorinostat + Bortezomib = compound: O=C(CCCCCCC(=O)Nc1ccccc1)NO [Vorinostat] + CC(C)C[C@H](NC(=O)[C@H](Cc1ccccc1)NC(=O)c1cnccn1)B(O)O [Bortezomib] (partner 0.002 µM)
How it was run: as §1

Vorinostat + Navitoclax = compound: O=C(CCCCCCC(=O)Nc1ccccc1)NO [Vorinostat] + CC1(C)CCC(c2ccc(Cl)cc2)=C(CN2CCN(c3ccc(C(=O)NS(=O)(=O)c4ccc(N[C@H](CCN5CCOCC5)CSc5ccccc5)c(S(=O)(=O)C(F)(F)F)c4)cc3)CC2)C1 [Navitoclax] (partner 0.5 µM)
How it was run: as §1

Cell Line	relative viability (Vorinostat + Pictilisib; first compound 0.253 µM)	relative viability (Vorinostat + Pictilisib; first compound 0.8 µM)	relative viability (Vorinostat + Pictilisib; first compound 2.53 µM)	relative viability (Vorinostat + Pictilisib; first compound 8 µM)	relative viability (Vorinostat + AZD7762; first compound 0.253 µM)	relative viability (Vorinostat + AZD7762; first compound 0.8 µM)	relative viability (Vorinostat + AZD7762; first compound 2.53 µM)	relative viability (Vorinostat + AZD7762; first compound 8 µM)	relative viability (Vorinostat + Decitabine; first compound 0.253 µM)	relative viability (Vorinostat + Decitabine; first compound 0.8 µM)	relative viability (Vorinostat + Decitabine; first compound 2.53 µM)	relative viability (Vorinostat + Decitabine; first compound 8 µM)	relative viability (Vorinostat + Bortezomib; first compound 0.253 µM)	relative viability (Vorinostat + Bortezomib; first compound 0.8 µM)	relative viability (Vorinostat + Bortezomib; first compound 2.53 µM)	relative viability (Vorinostat + Bortezomib; first compound 8 µM)	relative viability (Vorinostat + Navitoclax; first compound 0.253 µM)	relative viability (Vorinostat + Navitoclax; first compound 0.8 µM)	relative viability (Vorinostat + Navitoclax; first compound 2.53 µM)	relative viability (Vorinostat + Navitoclax; first compound 8 µM)
RERF-LC-KJ	0.562	0.474	0.182	0.164	1.06	0.977	0.379	0.211	0.79	0.614	0.184	0.254	1.2	1.04	0.423	0.286	1.25	0.754	0.251	0.291
NCI-H2342	–	–	–	–	0.431	0.575	0.347	0.254	0.58	0.715	0.529	0.391	–	–	–	–	–	–	–	–
LOU-NH91	0.556	0.472	0.417	0.32	0.757	0.739	0.548	0.414	0.845	0.854	0.702	0.45	0.514	0.475	0.438	0.354	0.791	0.568	0.313	0.233
NCI-H1944	0.338	0.308	0.27	0.18	0.328	0.27	0.19	0.104	0.397	0.364	0.259	0.141	–	–	–	–	1.07	0.945	0.731	0.226
HCC-366	0.132	0.191	0.0894	0.037	0.459	0.195	0.0622	0.0231	0.383	0.244	0.0518	0.0306	1.09	0.872	0.0664	0.0198	1.03	0.9	0.135	0.0208
SW 1573	0.543	0.45	0.24	0.0767	–	–	–	–	0.514	0.355	0.14	0.0457	1.11	1.1	0.565	0.0796	1.12	0.891	0.349	0.0555
SK-MES-1	0.469	0.349	0.231	0.0945	–	–	–	–	0.362	0.364	0.212	0.163	–	–	–	–	1.51	1.18	0.494	0.162
NCI-H1993	0.911	0.919	0.801	0.589	0.817	0.672	0.384	0.312	0.704	0.65	0.465	0.16	1.17	1.13	0.461	0.411	1	0.998	0.608	0.438
NCI-H1703	0.31	0.233	0.363	0.2	0.126	–	0.189	0.0985	–	–	–	–	0.262	0.23	0.156	0.133	1.46	1.47	0.888	0.161
HARA	0.483	0.447	0.132	0.102	0.2	0.245	0.146	0.125	0.468	0.367	0.194	0.0814	1.1	0.928	0.149	0.0288	1.17	1.16	0.606	0.086
